Data published in ChEMBL document CHEMBL1201862, “PubChem BioAssay data set” (2004).
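Values below derive from 48-hour exposures of cells grown in 96-well plates, with endpoints linearly interpolated between the two concentrations bracketing the appropriate inhibition level. GI50: concentration for 50% inhibition of growth.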 Calls of active or inactive are those of the source. Cut-off read from the data, not from the text of the source: active = GI50 up to about 1.1 µM and inactive = higher.

Key:
Test in all cases: NCI-60 cell line screen, 48 h
RPMI-8226 = test system: RPMI-8226
UACC-257 = test system: UACC-257
ACHN = test system: ACHN
RXF 393 = test system: RXF 393
KM12 = test system: KM12
A549 = test system: A549
NCI-H460 = test system: NCI-H460
MDA-MB-435 = test system: MDA-MB-435
CAKI-1 = test system: CAKI-1
SF-295 = test system: SF-295
M14 = test system: M14
NCI-H522 = test system: NCI-H522
OVCAR-3 = test system: OVCAR-3
SF-268 = test system: SF-268
SK-OV-3 = test system: SK-OV-3
SK-MEL-5 = test system: SK-MEL-5
NCI-H226 = test system: NCI-H226
HOP-62 = test system: HOP-62
SW-620 = test system: SW-620
SNB-75 = test system: SNB-75

Measured: GI50

O=[N+]([O-])C(/C=C(\Cl)[N+](=O)[O-])=C(N1CCCCC1)N1CCCCC1
inactive: RPMI-8226 30.8 µM | UACC-257 25.3 µM | ACHN 48.9 µM | RXF 393 49.4 µM | KM12 > 100 µM | A549 15.6 µM | NCI-H460 36.1 µM | MDA-MB-435 16.7 µM | CAKI-1 > 100 µM | SF-295 > 100 µM | M14 20.1 µM | NCI-H522 58.6 µM | OVCAR-3 27.5 µM | SF-268 51.2 µM | SK-OV-3 > 100 µM | SK-MEL-5 21.7 µM | NCI-H226 56.5 µM | HOP-62 39.6 µM

O=C(O)c1cccc2cccc(-c3cccc4cccc(C(=O)O)c34)c12
inactive: UACC-257 > 100 µM | SW-620 > 100 µM | ACHN > 100 µM | RXF 393 > 100 µM | KM12 > 100 µM | A549 > 100 µM | SNB-75 > 100 µM | NCI-H460 > 100 µM | MDA-MB-435 > 100 µM | CAKI-1 > 100 µM | SF-295 > 100 µM | M14 > 100 µM | NCI-H522 > 100 µM | OVCAR-3 > 100 µM | SF-268 > 100 µM | SK-OV-3 > 100 µM | SK-MEL-5 > 100 µM | NCI-H226 > 100 µM | HOP-62 > 100 µM

O=C1/C(=N\n2c(S)nnc2-c2ccncc2)c2cc(Cl)ccc2N1CN1CCCCC1
inactive: UACC-257 23.4 µM | SW-620 18.6 µM | ACHN 50.4 µM | RXF 393 15.8 µM | KM12 38.3 µM | A549 53.2 µM | SNB-75 34.3 µM | NCI-H460 36.8 µM | MDA-MB-435 32.2 µM | CAKI-1 33.7 µM | SF-295 94 µM | M14 44.7 µM | NCI-H522 13.7 µM | OVCAR-3 73.8 µM | SF-268 53.5 µM | SK-OV-3 39.5 µM | SK-MEL-5 48.6 µM | NCI-H226 > 100 µM | HOP-62 30.3 µM

CSc1nc2ccccc2c(=O)n1/N=C1\C(=O)N(CN2CCCCC2)c2ccc(Cl)cc21
inactive: UACC-257 20.4 µM | SW-620 12.5 µM | ACHN 28.6 µM | RXF 393 17.5 µM | KM12 25.1 µM | A549 37.2 µM | SNB-75 19.7 µM | NCI-H460 22.7 µM | MDA-MB-435 26.6 µM | CAKI-1 23.3 µM | SF-295 37 µM | M14 30.5 µM | NCI-H522 12.2 µM | OVCAR-3 59.3 µM | SF-268 20.1 µM | SK-OV-3 27.4 µM | SK-MEL-5 27.9 µM | NCI-H226 75.9 µM | HOP-62 33.3 µM

CC1=C(C(=O)N(C)c2ccc(Cl)c(C(=O)OC(C)C)c2)SCCO1
inactive: RPMI-8226 26.6 µM | UACC-257 43.3 µM | SW-620 > 100 µM | ACHN 61.5 µM | KM12 55 µM | A549 90.2 µM | SNB-75 18.7 µM | NCI-H460 > 100 µM | MDA-MB-435 48.6 µM | CAKI-1 > 100 µM | SF-295 60.1 µM | M14 > 100 µM | NCI-H522 44.9 µM | OVCAR-3 > 100 µM | SF-268 > 100 µM | SK-OV-3 > 100 µM | SK-MEL-5 29.6 µM | NCI-H226 44.6 µM

O=[N+]([O-])C(C(Cl)=C(Cl)Cl)=C(N(Cc1ccccc1)Cc1ccccc1)N(Cc1ccccc1)Cc1ccccc1
inactive: UACC-257 > 100 µM | SW-620 > 100 µM | ACHN 82 µM | RXF 393 92.9 µM | KM12 > 100 µM | A549 > 100 µM | SNB-75 > 100 µM | NCI-H460 56.9 µM | MDA-MB-435 28.2 µM | CAKI-1 > 100 µM | SF-295 27.9 µM | M14 34.8 µM | NCI-H522 > 100 µM | OVCAR-3 > 100 µM | SF-268 > 100 µM | SK-OV-3 38.1 µM | SK-MEL-5 42.8 µM | NCI-H226 36.6 µM | HOP-62 43.7 µM

O=C(Nc1ccc(Cl)cc1C(F)(F)F)C(=O)Nn1c(S)nc2ccccc2c1=O
inactive: RPMI-8226 > 100 µM | UACC-257 > 100 µM | SW-620 > 100 µM | ACHN > 100 µM | RXF 393 > 100 µM | KM12 > 100 µM | A549 > 100 µM | SNB-75 27.8 µM | NCI-H460 > 100 µM | MDA-MB-435 > 100 µM | CAKI-1 > 100 µM | SF-295 > 100 µM | M14 > 100 µM | OVCAR-3 > 100 µM | SF-268 > 100 µM | SK-OV-3 > 100 µM | SK-MEL-5 > 100 µM | NCI-H226 > 100 µM | HOP-62 > 100 µM

COc1ccc(C(=O)/C=C/c2ccc(OCC(=N)N)cc2)cc1
inactive: UACC-257 18.5 µM | SW-620 3.7 µM | ACHN 17.6 µM | RXF 393 14.7 µM | KM12 12.6 µM | A549 17.7 µM | SNB-75 5.73 µM | NCI-H460 > 10 µM | MDA-MB-435 19.3 µM | CAKI-1 > 10 µM | SF-295 16.3 µM | M14 17 µM | NCI-H522 > 10 µM | OVCAR-3 14.4 µM | SF-268 17.3 µM | SK-OV-3 12.9 µM | SK-MEL-5 17.3 µM | NCI-H226 18.8 µM | HOP-62 15.8 µM

CCCCNC(=S)c1ccc(OC(=O)Nc2ccc(Cl)cc2)cc1
inactive: RPMI-8226 65.2 µM | UACC-257 77.4 µM | SW-620 > 100 µM | ACHN 70.6 µM | KM12 2.75 µM | A549 39.1 µM | NCI-H460 10.4 µM | MDA-MB-435 70.1 µM | CAKI-1 18.5 µM | SF-295 > 100 µM | M14 9.27 µM | NCI-H522 24.5 µM | OVCAR-3 66.5 µM | SF-268 49.1 µM | SK-OV-3 > 100 µM | SK-MEL-5 20 µM | HOP-62 > 100 µM

C#CCCCOc1ncccn1
inactive: RPMI-8226 > 100 µM | UACC-257 > 100 µM | SW-620 > 100 µM | ACHN > 100 µM | RXF 393 > 100 µM | KM12 > 100 µM | A549 > 100 µM | MDA-MB-435 > 100 µM | CAKI-1 > 100 µM | SF-295 > 100 µM | M14 > 100 µM | NCI-H522 > 100 µM | OVCAR-3 > 100 µM | SF-268 > 100 µM | SK-OV-3 > 100 µM | SK-MEL-5 > 100 µM | NCI-H226 > 100 µM | HOP-62 > 100 µM

CC(C)(O)/C=C\P(=O)(O)O
inactive: UACC-257 > 100 µM | SW-620 > 100 µM | ACHN > 100 µM | RXF 393 > 100 µM | KM12 > 100 µM | A549 > 100 µM | SNB-75 > 100 µM | NCI-H460 > 100 µM | MDA-MB-435 > 100 µM | CAKI-1 > 100 µM | SF-295 > 100 µM | M14 > 100 µM | NCI-H522 > 100 µM | OVCAR-3 > 100 µM | SF-268 > 100 µM | SK-OV-3 > 100 µM | SK-MEL-5 > 100 µM | NCI-H226 > 100 µM | HOP-62 > 100 µM
